In patent US20260216183A1 (SHENZHEN NEWDEL BIOTECH CO., LTD., priority 2023, published 2026):
Blank lines part the entries; values can stand above or below the molecule they belong to.

Tests used:
TRKC = biological target: T1, TRKC (Homo sapiens, UniProt Q16288); experiment: TRKC enzyme activity assay (HTRF); type: biochemical; conditions: ATP 25 μM
T1 construct: purchased Carna 08-197
Description: (§2) A kinase phosphorylates a substrate, and an antibody labeled with Eu-CryPtate binds to a phosphorylation site in the substrate; streptavidin-XL665 binds to the substrate biotin; when Eu and XL665 are close, Eu as a donor emits emission light (620 nm) after being excited by a light source (320 nm) and transfers energy resonance to a close XL665 receptor, and the receptor emits emission light (665 nm) after being excited; the specific signal is proportional to the phosphorylated substrate; when an inhibitor is added, the phosphorylation level is inhibited, the emission light at 665 nm is undetectable, and only the emission light at 620 nm is detected, so as to evaluate the level of inhibition of kinase activity by the compound.
Replicate wells were set for the assay. […] 2.5 μL of TRKC (1.5 nM, 08-197, Carna) solution was transferred to a 384 reaction plate. The plate was centrifuged at 1000 rpm for 60 s using a centrifuge and incubated at 25° C. for 10 min. A mixed solution of 2× biotin-labeled tyrosine kinase substrate (1 μM) and ATP (25 μM) was prepared using the kinase reaction buffer. […] The fluorescence signals at 620 nm (Cryptate) and 665 nm (XL665) were read using a BMG microplate reader. The ratio of the fluorescence signals, i.e., (665 nm/620 nm)×10000, in each well was calculated, and the ratio represented the degree of the kinase activity.

TRKA = biological target: T2, TRKA (Homo sapiens, UniProt P04629); experiment: TRKA enzyme activity assay (HTRF); type: biochemical; conditions: ATP 25 μM
T2 construct: purchased Carna 08-186
T2 sequence (P04629 33-796): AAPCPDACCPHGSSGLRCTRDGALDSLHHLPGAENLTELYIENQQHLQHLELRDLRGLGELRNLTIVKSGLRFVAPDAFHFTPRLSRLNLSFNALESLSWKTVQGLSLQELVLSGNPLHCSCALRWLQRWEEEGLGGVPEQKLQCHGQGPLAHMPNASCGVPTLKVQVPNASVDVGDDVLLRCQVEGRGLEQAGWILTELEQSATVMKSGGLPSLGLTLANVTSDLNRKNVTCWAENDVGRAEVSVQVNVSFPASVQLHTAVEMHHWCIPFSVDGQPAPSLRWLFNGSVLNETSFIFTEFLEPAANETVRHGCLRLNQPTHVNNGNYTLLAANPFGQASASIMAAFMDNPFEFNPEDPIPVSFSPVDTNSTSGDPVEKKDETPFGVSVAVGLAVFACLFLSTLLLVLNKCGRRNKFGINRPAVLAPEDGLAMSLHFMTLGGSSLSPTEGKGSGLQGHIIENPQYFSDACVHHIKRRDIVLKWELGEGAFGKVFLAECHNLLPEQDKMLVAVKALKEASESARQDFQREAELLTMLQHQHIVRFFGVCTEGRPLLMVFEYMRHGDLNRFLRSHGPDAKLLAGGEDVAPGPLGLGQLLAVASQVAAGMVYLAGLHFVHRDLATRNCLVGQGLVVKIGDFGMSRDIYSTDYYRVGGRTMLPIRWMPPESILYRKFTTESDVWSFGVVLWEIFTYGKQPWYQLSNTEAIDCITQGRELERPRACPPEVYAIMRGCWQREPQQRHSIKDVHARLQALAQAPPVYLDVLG
Description: as §2
Replicate wells were set for the assay. 25 nL of the compound was transferred to a 384 reaction plate (Catalog No. 784075, Greiner) using Echo 665. […] 2.5 μL of TRKA (1.5 nM, 08-186, Carna) solution was transferred to a 384 reaction plate. The plate was centrifuged at 1000 rpm for 60 s using a centrifuge and incubated at 25° C. for 10 min. […] The fluorescence signals at 620 nm (Cryptate) and 665 nm (XL665) were read using a BMG microplate reader. The ratio of the fluorescence signals, i.e., (665 nm/620 nm)×10000, in each well was calculated, and the ratio represented the degree of the kinase activity.

DDR2 = biological target: T3, DDR2 (Homo sapiens, UniProt Q16832); experiment: DDR2 enzyme activity assay (HTRF); type: biochemical; conditions: ATP 25 μM
T3 sequence (Q16832 22-855): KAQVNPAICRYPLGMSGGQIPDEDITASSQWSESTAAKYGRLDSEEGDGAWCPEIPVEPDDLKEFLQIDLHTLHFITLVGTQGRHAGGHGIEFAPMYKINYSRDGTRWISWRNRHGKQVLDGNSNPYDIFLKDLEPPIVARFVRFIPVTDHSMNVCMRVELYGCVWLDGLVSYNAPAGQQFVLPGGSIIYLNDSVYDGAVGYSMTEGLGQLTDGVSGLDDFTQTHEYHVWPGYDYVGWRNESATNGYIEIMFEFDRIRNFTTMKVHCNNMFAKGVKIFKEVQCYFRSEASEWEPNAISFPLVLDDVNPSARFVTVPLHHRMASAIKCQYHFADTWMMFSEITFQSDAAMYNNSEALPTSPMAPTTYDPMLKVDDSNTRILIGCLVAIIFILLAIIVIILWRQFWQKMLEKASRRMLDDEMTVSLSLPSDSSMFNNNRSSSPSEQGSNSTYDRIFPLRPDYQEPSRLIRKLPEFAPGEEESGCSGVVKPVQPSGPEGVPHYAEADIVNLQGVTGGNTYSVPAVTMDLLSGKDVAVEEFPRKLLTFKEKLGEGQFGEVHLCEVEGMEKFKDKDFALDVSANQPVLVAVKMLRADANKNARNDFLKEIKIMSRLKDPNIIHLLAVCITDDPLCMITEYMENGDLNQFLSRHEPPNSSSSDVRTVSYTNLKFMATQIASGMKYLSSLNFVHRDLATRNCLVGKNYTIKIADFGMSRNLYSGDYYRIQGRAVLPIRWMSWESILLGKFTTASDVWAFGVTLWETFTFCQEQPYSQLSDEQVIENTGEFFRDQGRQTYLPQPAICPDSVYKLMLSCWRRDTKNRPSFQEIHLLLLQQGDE
Description: Replicate wells were set for the assay. […] 2.5 μL of DDR2 (1.3 nM, 08-114, Carna) solution was transferred to a 384 reaction plate. The plate was centrifuged at 1000 rpm for 60 s using a centrifuge and incubated at 25° C. for 10 min. A mixed solution of 2× biotin-labeled tyrosine kinase substrate (1 μM) and ATP (25 μM) was prepared using the kinase reaction buffer. 2.5 μL of the mixed solution of the substrate and ATP was added to the reaction plate to start the reaction, and the plate was centrifuged at 1000 rpm for 60 s using the centrifuge. The plate was sealed with a plate-sealing film and incubated at 25° C. for 40 min. 5 μL of a mixed solution of Eu-CryPtate-labeled anti-tyrosine kinase antibody and streptavidin-XL665 was added to each well of the reaction plate. The plate was centrifuged at 1000 rpm for 1 min and incubated at 25° C. for 60 min. The fluorescence signals at 620 nm (Cryptate) and 665 nm (XL665) were read using a BMG microplate reader. The ratio of the fluorescence signals, i.e., (665 nm/620 nm)×10000, in each well was calculated, and the ratio represented the degree of the kinase activity.

CSF1R = biological target: T4, CSF1R (Homo sapiens, UniProt P07333); experiment: CSF1R enzyme activity assay (HTRF); type: biochemical; conditions: ATP 25 μM
T4 construct: purchased Carna 08-114
T4 sequence (P07333 538-972 limits assumed): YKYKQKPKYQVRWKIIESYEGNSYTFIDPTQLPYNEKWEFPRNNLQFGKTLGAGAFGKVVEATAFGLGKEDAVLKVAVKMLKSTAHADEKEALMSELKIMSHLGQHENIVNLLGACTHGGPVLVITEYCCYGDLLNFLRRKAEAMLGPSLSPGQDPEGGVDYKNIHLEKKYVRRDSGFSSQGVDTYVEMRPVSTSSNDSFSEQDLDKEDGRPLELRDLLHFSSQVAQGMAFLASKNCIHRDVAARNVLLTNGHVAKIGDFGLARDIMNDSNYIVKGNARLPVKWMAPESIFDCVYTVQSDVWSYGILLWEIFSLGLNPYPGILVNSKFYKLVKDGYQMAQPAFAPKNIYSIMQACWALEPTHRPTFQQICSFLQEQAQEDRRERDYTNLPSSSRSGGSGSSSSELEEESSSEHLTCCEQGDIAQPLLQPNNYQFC
Description: as §2
Replicate wells were set for the assay. […] 2.5 μL of CSF1R (1.3 nM, 08-114, Carna) solution was transferred to a 384 reaction plate. The plate was centrifuged at 1000 rpm for 60 s using a centrifuge and incubated at 25° C. for 10 min. A mixed solution of 2× biotin-labeled tyrosine kinase substrate (1 μM) and ATP (25 μM) was prepared using the kinase reaction buffer. […] The fluorescence signals at 620 nm (Cryptate) and 665 nm (XL665) were read using a BMG microplate reader. The ratio of the fluorescence signals, i.e., (665 nm/620 nm)×10000, in each well was calculated, and the ratio represented the degree of the kinase activity.

[1] = system: OXA-induced atopic dermatitis mouse model; experiment: OXA-induced atopic dermatitis mouse model, oral administration; type: in vivo, Balb/c mice; conditions: for Inflammatory cell content in right ear tissue, Significance level: compared to G2 (vehicle); for Clinical scores of dorsal skin, Significance level / Rate of change in the thickness of the pinna of the right ear, Significance level / Thickness of dermis layer of right ear, Significance level / Thickness of epidermal layer of right ear, Significance level / Pinna thickness change rate at time point, Significance level: vs group 2 (vehicle); for Number of inflammatory cells per mm: right ear tissue, Mean ± SEM
Description: (§1) (1) Screening and grouping: 60 female 6- to 8-week-old Balb/c mice in total were used as experimental animals in this project, which were obtained from Shanghai Model Organisms Center, Inc. The first grouping was done before the start of the experiment. […] (2) Animal modeling: The day when the first grouping was done was designated as day (−7). The backs of the mice were depilated with depilatory cream (area of about 2 cm×3 cm). […] The 1% OXA solution was prepared by weighing 0.1 g of OXA powder, adding 10 mL of an acetone solution, mixing well, and dissolving. […] (3) The administration mode of the test substance: […] The mice were sacrificed on day 21. The skin of the right ear of the mice was left for pathological examination. The thickness of the epidermal layer and inflammatory cell infiltration were measured by H&E staining, and the thickness of the dermis layer was measured by Masson staining.

[2] = Mouse body weight change in the oral administration experiment; type: in vivo, Balb/c mice; conditions: vs group 2 (vehicle)
Description: as §1

DDR1 = biological target: T5, DDR1 (Homo sapiens, UniProt Q08345); experiment: DDR1 enzyme activity assay (HTRF); type: biochemical; conditions: ATP 25 μM
T5 construct: purchased Carna 08-113
T5 sequence (Q08345 19-913): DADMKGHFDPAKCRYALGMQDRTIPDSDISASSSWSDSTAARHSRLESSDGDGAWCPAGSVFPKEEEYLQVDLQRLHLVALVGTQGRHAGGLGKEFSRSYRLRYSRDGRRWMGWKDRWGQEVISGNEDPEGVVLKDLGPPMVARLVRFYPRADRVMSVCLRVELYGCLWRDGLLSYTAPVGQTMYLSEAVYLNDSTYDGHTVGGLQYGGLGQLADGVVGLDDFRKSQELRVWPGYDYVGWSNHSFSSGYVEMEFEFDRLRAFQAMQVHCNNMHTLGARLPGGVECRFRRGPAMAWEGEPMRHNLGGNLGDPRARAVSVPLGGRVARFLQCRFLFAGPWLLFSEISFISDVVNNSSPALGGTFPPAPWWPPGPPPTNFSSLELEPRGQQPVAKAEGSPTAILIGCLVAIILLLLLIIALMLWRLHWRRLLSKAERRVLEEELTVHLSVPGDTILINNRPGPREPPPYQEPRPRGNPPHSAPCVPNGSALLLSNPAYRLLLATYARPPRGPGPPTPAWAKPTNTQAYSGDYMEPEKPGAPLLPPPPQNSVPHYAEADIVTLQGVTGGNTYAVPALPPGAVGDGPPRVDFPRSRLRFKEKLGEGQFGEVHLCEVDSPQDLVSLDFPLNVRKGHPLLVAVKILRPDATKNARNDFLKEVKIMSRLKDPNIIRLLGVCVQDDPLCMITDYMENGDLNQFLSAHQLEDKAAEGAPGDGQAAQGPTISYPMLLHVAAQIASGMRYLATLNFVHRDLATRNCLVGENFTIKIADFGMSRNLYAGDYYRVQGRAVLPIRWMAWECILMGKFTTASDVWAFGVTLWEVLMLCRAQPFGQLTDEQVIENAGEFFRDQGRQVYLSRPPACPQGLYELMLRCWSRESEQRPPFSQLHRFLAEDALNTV
Description: as §2
Replicate wells were set for the assay. […] 2.5 μL of DDR1 (2.7 nM, 08-113, Carna) solution was transferred to a 384 reaction plate. The plate was centrifuged at 1000 rpm for 60 s using a centrifuge and incubated at 25° C. for 10 min. A mixed solution of 2× biotin-labeled tyrosine kinase substrate (1 μM) and ATP (25 μM) was prepared using the kinase reaction buffer. […] The fluorescence signals at 620 nm (Cryptate) and 665 nm (XL665) were read using a BMG microplate reader. The ratio of the fluorescence signals, i.e., (665 nm/620 nm)×10000, in each well was calculated, and the ratio represented the degree of the kinase activity.

T1 sequence (Q16288 32-839): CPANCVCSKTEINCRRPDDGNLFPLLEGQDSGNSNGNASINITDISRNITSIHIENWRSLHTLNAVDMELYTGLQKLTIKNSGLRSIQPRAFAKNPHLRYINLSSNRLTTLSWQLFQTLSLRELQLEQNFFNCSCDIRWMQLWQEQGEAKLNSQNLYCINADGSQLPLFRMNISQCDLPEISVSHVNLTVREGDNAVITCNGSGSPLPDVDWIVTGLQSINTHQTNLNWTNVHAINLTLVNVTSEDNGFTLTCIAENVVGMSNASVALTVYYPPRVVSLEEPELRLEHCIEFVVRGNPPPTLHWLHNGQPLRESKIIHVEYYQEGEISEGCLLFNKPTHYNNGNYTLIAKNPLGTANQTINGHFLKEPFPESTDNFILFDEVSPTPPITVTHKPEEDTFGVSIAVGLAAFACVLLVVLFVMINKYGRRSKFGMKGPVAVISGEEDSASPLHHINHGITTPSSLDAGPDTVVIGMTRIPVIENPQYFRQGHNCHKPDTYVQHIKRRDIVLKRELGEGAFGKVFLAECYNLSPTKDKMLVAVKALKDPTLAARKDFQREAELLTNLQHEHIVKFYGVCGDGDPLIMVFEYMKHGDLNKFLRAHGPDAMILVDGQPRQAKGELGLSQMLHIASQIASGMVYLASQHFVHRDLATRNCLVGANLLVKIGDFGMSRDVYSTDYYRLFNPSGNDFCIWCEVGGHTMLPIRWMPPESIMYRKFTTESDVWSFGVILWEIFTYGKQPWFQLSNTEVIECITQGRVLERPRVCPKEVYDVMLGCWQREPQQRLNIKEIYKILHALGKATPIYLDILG

IC50 (TRKC): 0.35 nM
IC50 (TRKA): 4.4 nM
IC50 (DDR2): 37.9 nM
IC50 (CSF1R): 14.7 nM
IC50 (DDR1): 0.762 nM
Structure (SMILES): Cc1c(C#Cc2cnc3ccc(N4CCC(O)CC4)nn23)cccc1C(=O)Nc1cc(Cl)cc(C(F)(F)F)c1 [compound 1, N-(3-chloro-5-(trifluoromethyl)phenyl)-3-((6-(4-hydroxypiperidin-1-yl)imidazo[1,2-b]pyridazin-3-yl)ethynyl)-2-methylbenzamide]
Inflammatory cell content in right ear tissue, Significance level ([1]; 3 mpk p.o. once daily 22 days): *** (***p<0.001)
Clinical scores of dorsal skin, Significance level ([1]; 3 mpk p.o. once daily 22 days): ns (p>0.05)
Rate of change in the thickness of the pinna of the right ear, Significance level ([1]; 3 mpk p.o. once daily 22 days): * (*p<0.05)
Thickness of dermis layer of right ear, Significance level ([1]; 3 mpk p.o. once daily 22 days): **** (****p<0.0001)
Thickness of epidermal layer of right ear, Significance level ([1]; 3 mpk p.o. once daily 22 days): * (*p<0.05)
Inflammatory cell content in right ear tissue, Significance level ([1]; 10 mpk p.o. once daily 22 days): *** (***p<0.001)
Clinical scores of dorsal skin, Significance level ([1]; 10 mpk p.o. once daily 22 days): * (*p<0.05)
Rate of change in the thickness of the pinna of the right ear, Significance level ([1]; 10 mpk p.o. once daily 22 days): **** (****p<0.0001)
Thickness of dermis layer of right ear, Significance level ([1]; 10 mpk p.o. once daily 22 days): **** (****p<0.0001)
Thickness of epidermal layer of right ear, Significance level ([1]; 10 mpk p.o. once daily 22 days): * (*p<0.05)
Inflammatory cell content in right ear tissue, Significance level ([1]; 30 mpk p.o. once daily 22 days): *** (***p<0.001)
Clinical scores of dorsal skin, Significance level ([1]; 30 mpk p.o. once daily 22 days): *** (***p<0.001)
Rate of change in the thickness of the pinna of the right ear, Significance level ([1]; 30 mpk p.o. once daily 22 days): **** (****p<0.0001)
Thickness of dermis layer of right ear, Significance level ([1]; 30 mpk p.o. once daily 22 days): **** (****p<0.0001)
Thickness of epidermal layer of right ear, Significance level ([1]; 30 mpk p.o. once daily 22 days): * (*p<0.05)
Pinna thickness change rate at time point, Significance level ([1]; day 3, 3 mpk p.o. once daily): ns (p>0.05)
Pinna thickness change rate at time point, Significance level ([1]; day 3, 10 mpk p.o. once daily): ns (p>0.05)
Pinna thickness change rate at time point, Significance level ([1]; day 3, 30 mpk p.o. once daily): ** (**p<0.01)
Pinna thickness change rate at time point, Significance level ([1]; day 5, 3 mpk p.o. once daily): ns (p>0.05)
Pinna thickness change rate at time point, Significance level ([1]; day 5, 10 mpk p.o. once daily): ns (p>0.05)
Pinna thickness change rate at time point, Significance level ([1]; day 5, 30 mpk p.o. once daily): ** (**p<0.01)
Pinna thickness change rate at time point, Significance level ([1]; day 7, 3 mpk p.o. once daily): ns (p>0.05)
Pinna thickness change rate at time point, Significance level ([1]; day 7, 10 mpk p.o. once daily): ns (p>0.05)
Pinna thickness change rate at time point, Significance level ([1]; day 7, 30 mpk p.o. once daily): ** (**p<0.01)
Pinna thickness change rate at time point, Significance level ([1]; day 10, 3 mpk p.o. once daily): * (*p<0.05)
Pinna thickness change rate at time point, Significance level ([1]; day 10, 10 mpk p.o. once daily): ** (**p<0.01)
Pinna thickness change rate at time point, Significance level ([1]; day 10, 30 mpk p.o. once daily): ** (**p<0.01)
Pinna thickness change rate at time point, Significance level ([1]; day 12, 3 mpk p.o. once daily): ns (p>0.05)
Pinna thickness change rate at time point, Significance level ([1]; day 12, 10 mpk p.o. once daily): ns (p>0.05)
Pinna thickness change rate at time point, Significance level ([1]; day 12, 30 mpk p.o. once daily): ** (**p<0.01)
Pinna thickness change rate at time point, Significance level ([1]; day 14, 3 mpk p.o. once daily): ns (p>0.05)
Pinna thickness change rate at time point, Significance level ([1]; day 14, 10 mpk p.o. once daily): ** (**p<0.01)
Pinna thickness change rate at time point, Significance level ([1]; day 14, 30 mpk p.o. once daily): ** (**p<0.01)
Pinna thickness change rate at time point, Significance level ([1]; day 17, 3 mpk p.o. once daily): ns (p>0.05)
Pinna thickness change rate at time point, Significance level ([1]; day 17, 10 mpk p.o. once daily): ns (p>0.05)
Pinna thickness change rate at time point, Significance level ([1]; day 17, 30 mpk p.o. once daily): * (*p<0.05)
Pinna thickness change rate at time point, Significance level ([1]; day 19, 3 mpk p.o. once daily): ns (p>0.05)
Pinna thickness change rate at time point, Significance level ([1]; day 19, 10 mpk p.o. once daily): ** (**p<0.01)
Pinna thickness change rate at time point, Significance level ([1]; day 19, 30 mpk p.o. once daily): *** (***p<0.001)
Pinna thickness change rate at time point, Significance level ([1]; day 21, 3 mpk p.o. once daily): ns (p>0.05)
Pinna thickness change rate at time point, Significance level ([1]; day 21, 10 mpk p.o. once daily): ** (**p<0.01)
Pinna thickness change rate at time point, Significance level ([1]; day 21, 30 mpk p.o. once daily): *** (***p<0.001)
Number of inflammatory cells per mm ([1]; 3 mpk p.o. once daily 22 days): 189 ± 27.25 cells per mm
Number of inflammatory cells per mm ([1]; 10 mpk p.o. once daily 22 days): 162 ± 18.31 cells per mm
Number of inflammatory cells per mm ([1]; 30 mpk p.o. once daily 22 days): 160 ± 34.18 cells per mm
Rate of change in body weight, Significance level ([2]; 3 mpk p.o. once daily 22 days): ** (**p<0.01)
Rate of change in body weight, Significance level ([2]; 10 mpk p.o. once daily 22 days): ns (p>0.05)
Rate of change in body weight, Significance level ([2]; 30 mpk p.o. once daily 22 days): ns (p>0.05)

Structure (SMILES): CCCS(=O)(=O)N[C@H]1C[C@@H](N(C)c2ncnc3[nH]ccc23)C1 [Abrocitinib, reference compound]
Inflammatory cell content in right ear tissue, Significance level ([1]; 17 mpk p.o. once daily 22 days): * (*p<0.05)
Clinical scores of dorsal skin, Significance level ([1]; 17 mpk p.o. once daily 22 days): * (*p<0.05)
Rate of change in the thickness of the pinna of the right ear, Significance level ([1]; 17 mpk p.o. once daily 22 days): **** (****p<0.0001)
Thickness of dermis layer of right ear, Significance level ([1]; 17 mpk p.o. once daily 22 days): *** (***p<0.001)
Thickness of epidermal layer of right ear, Significance level ([1]; 17 mpk p.o. once daily 22 days): ns (p>0.05)
Pinna thickness change rate at time point, Significance level ([1]; day 3, 17 mpk p.o. once daily): ns (p>0.05)
Pinna thickness change rate at time point, Significance level ([1]; day 5, 17 mpk p.o. once daily): ns (p>0.05)
Pinna thickness change rate at time point, Significance level ([1]; day 7, 17 mpk p.o. once daily): ns (p>0.05)
Pinna thickness change rate at time point, Significance level ([1]; day 10, 17 mpk p.o. once daily): ** (**p<0.01)
Pinna thickness change rate at time point, Significance level ([1]; day 12, 17 mpk p.o. once daily): * (*p<0.05)
Pinna thickness change rate at time point, Significance level ([1]; day 14, 17 mpk p.o. once daily): ** (**p<0.01)
Pinna thickness change rate at time point, Significance level ([1]; day 17, 17 mpk p.o. once daily): ns (p>0.05)
Pinna thickness change rate at time point, Significance level ([1]; day 19, 17 mpk p.o. once daily): ** (**p<0.01)
Pinna thickness change rate at time point, Significance level ([1]; day 21, 17 mpk p.o. once daily): * (*p<0.05)
Number of inflammatory cells per mm ([1]; 17 mpk p.o. once daily 22 days): 236 ± 26.59 cells per mm
Rate of change in body weight, Significance level ([2]; 17 mpk p.o. once daily 22 days): ns (p>0.05)
